Experimental data reported in patent US5241047A, “Synthetic peptides and mixtures thereof for detecting HIV antibodies” (BioChem Pharma Inc., priority 1990, dated 1993).
Positions of bridges follow the written chain, without caps; N, C: chain ends. Residues, ends and D or L forms follow the SMILES beside them.

How the values were obtained:
Format in all cases: binding, human
[1] = test system: HIV-1 antibodies; test: ELISA with peptide-coated wells, HIV-1 antibody positive samples (diluted plasma pool, seroconversion samples)
Experimental: (§1) A preferred convenient and classical technique for the determination of antibodies against HIV-1 or HIV-2 using a peptide or a peptide mixture of the present invention is an enzyme-linked immunosorbent assay (ELISA). In this assay, for example, a peptide, peptide mixture or combination of the present invention is adsorbed onto, or covalently coupled to, the wells of a microtiter plate. The wells are then treated with the sera or analyte to be tested. After washing, antihuman IgG or antihuman IgM labeled with peroxidase is added to the wells. The determination of the peroxidase is performed with a corresponding substrate, e.g., with o-phenylene diamine. Without departing from the usefulness of the illustrative assay, the peroxidase can be exchanged by another label, e.g., by a radioactive, fluorescence chemiluminescence or infrared emitting label.
(§2) O.D. Values were obtained at 450 nm and the blank values measured with the sample dilution buffer were not subtracted.
(§3) Samples NEIA-2*2, BBI-1-162 to 168, 87B140, 87L139, 87V103 are all negative for HIV antibodies. Sample LSPQ-S9-1 is an early seroconverter (HIV-1). The series labeled CAP-113 to CAP-120 corresponds to a pool of seven HIV-1 positive plasma samples serially diluted with an HIV-negative plasma. CAP-113 is the pool diluted 50-fold with the HIV-negative plasma; CAP-114 is diluted 100-fold; CAP-115 is diluted 200-fold; etc. Similarly, the series labeled CAP-222 to CAP-230 corresponds to a pool of seven HIV-2 confirmed seropositive plasma samples. CAP-222 is diluted by 50 with an HIV-negative plasma; CAP-223 by 100; etc. Before the assay is done, each sample, including the CAP-series, is further diluted by 50 with the sample dilution buffer. In these tests, the cut-off for seropositivity is defined as the sum of the O.D. value for sample NEIA-2*2 plus 0.100.
Each well of the microtiter plate is saturated with 100 μl of a solution containing a peptide or mixture of peptides (5 μg/ml) and left overnight. The wells are emptied and washed twice with a washing buffer (Tris, 0.043M; NaCl, 0.5M; thimerosal, 0.01% w/v; Tween 20, 0.05% v/v; pH 7.4). The wells are then saturated with 0.35 ml of washing buffer for 1 hr. at 37° C. and washed once with the same buffer. Serum samples to be analyzed are diluted with specimen buffer (washing buffer plus casein, 0.05% w/v). The wells are rinsed with washing buffer prior to the addition of the diluted serum sample (0.1 ml). These are left to incubate for 1 hr. at room temperature. The wells are then emptied, washed twice rapidly and then once for two minutes with washing buffer. […] The wells are then emptied and washed twice rapidly with washing buffer and then five times in which the buffer was in contact with the well 2 minutes per washing. The substrate solution (3,3',5,5'-tetramethylbenzidine, 8 mg per ml of DMSO) is diluted with 100 volumes 0.1M citrate-acetate buffer, pH 5.6 containing 0.1% v/v of 30% H2 O2 and added to each well (0.1 ml per well). After 10 minutes the contents of each well is treated with 0.1 ml 2N H2 SO4 and the optical density read at 450 nm. All determinations are done in duplicate. […]

[2] = test system: HIV-2 antibodies; test: ELISA with peptide-coated wells, HIV-2 seropositive plasma pool serially diluted; conditions: Test 314
Experimental: as §1, §2, §3
(§4) Each well of the microtiter plate is saturated with 100 μl of a solution containing a peptide or mixture of peptides (5 μg/ml) and left overnight. The wells are emptied and washed twice with a washing buffer (Tris, 0.043M; NaCl, 0.5M; thimerosal, 0.01% w/v; Tween 20, 0.05% v/v; pH 7.4). The wells are then saturated with 0.35 ml of washing buffer for 1 hr. at 37° C. and washed once with the same buffer. Serum samples to be analyzed are diluted with specimen buffer (washing buffer plus casein, 0.05% w/v). The wells are rinsed with washing buffer prior to the addition of the diluted serum sample (0.1 ml). These are left to incubate for 1 hr. at room temperature. The wells are then emptied, washed twice rapidly and then once for two minutes with washing buffer. […] The wells are then emptied and washed twice rapidly with washing buffer and then five times in which the buffer was in contact with the well 2 minutes per washing. The substrate solution (3,3',5,5'-tetramethylbenzidine, 8 mg per ml of DMSO) is diluted with 100 volumes 0.1M citrate-acetate buffer, pH 5.6 containing 0.1% v/v of 30% H2 O2 and added to each well (0.1 ml per well). After 10 minutes the contents of each well is treated with 0.1 ml 2N H2 SO4 and the optical density read at 450 nm. All determinations are done in duplicate.
(§5) Peptide cocktails were prepared by mixing together equal volumes of two peptide solutions each at 10 ug/ml. One cocktail used peptides BCH-87c and BCH-202c and the other cocktail was a mixture of BCH-87ck and BCH-202ck. Each cocktail was used to coat two series of plates as described earlier.

[3] = test system: HIV antibodies; test: ELISA with peptide-coated wells, samples negative for HIV antibodies or not described
Experimental: as §1, §2, §3, §4, §5

[4] = Test 350, sample CAP-10 (progressively higher dilutions)
[5] = Test 350, sample CAP-11 (progressively higher dilutions)
[6] = Test 350, sample CAP-12 (progressively higher dilutions)
[7] = Test 350, sample CAP-13 (progressively higher dilutions)
[8] = Test 350, sample CAP-14 (progressively higher dilutions)
[9] = Test 350, sample CAP-15 (progressively higher dilutions)
[10] = Test 350, sample CAP-16 (progressively higher dilutions)
[11] = Test 350, sample CAP-17 (progressively higher dilutions)
[12] = Test 350, sample CAP-18 (progressively higher dilutions)
[13] = Test 350, sample CAP-19 (progressively higher dilutions)
[14] = Test 350, sample 2-87-L-139 (negative for HIV antibodies)
[15] = Test 350, sample 2-87-V-103 (negative for HIV antibodies)
[16] = Test 350, sample 89-D-307 (not described)
[17] = Test 350, sample NEIA-2*2 (negative for HIV antibodies)

Row | SMILES | O.D. 450 nm [1, 4] | O.D. 450 nm [1, 5] | O.D. 450 nm [1, 6] | O.D. 450 nm [1, 7] | O.D. 450 nm [1, 8] | O.D. 450 nm [1, 9] | O.D. 450 nm [1, 10] | O.D. 450 nm [1, 11] | O.D. 450 nm [1, 12] | O.D. 450 nm [1, 13] | O.D. 450 nm [3, 14] | O.D. 450 nm [3, 15] | O.D. 450 nm [3, 16] | O.D. 450 nm [3, 17] | also measured
1 | CC[C@H](C)[C@H](NC(=O)CNC(=O)[C@H](CC(C)C)NC(=O)[C@H](CC(C)C)NC(=O)[C@H](CCC(N)=O)NC(=O)[C@H](CCC(N)=O)NC(=O)[C@H](CC(=O)O)NC(=O)[C@H](CCCCN)NC(=O)[C@H](CC(C)C)NC(=O)[C@H](Cc1ccc(O)cc1)NC(=O)[C@H](CCCNC(=N)N)NC(=O)[C@H](CCC(=O)O)NC(=O)[C@@H](NC(=O)[C@H](C)NC(=O)[C@H](CC(C)C)NC(=O)[C@@H](NC(=O)[C@@H](N)CCCCN)[C@@H](C)CC)C(C)C)C(=O)N[C@@H](Cc1c[nH]c2ccccc12)C(=O)NCC(=O)N[C@H]1CSSC[C@@H](C(=O)N[C@H](C(=O)N[C@H](C(=O)N[C@@H](C)C(=O)N[C@H](C(=O)N2CCC[C@H]2C(=O)N[C@@H](Cc2c[nH]c3ccccc23)C(=O)N[C@@H](CC(N)=O)C(=O)N[C@@H](C)C(=O)N[C@@H](CO)C(=O)O)C(C)C)[C@@H](C)O)[C@@H](C)O)NC(=O)[C@H]([C@@H](C)CC)NC(=O)[C@H](CC(C)C)NC(=O)[C@H](CCCCN)NC(=O)CNC(=O)[C@H](CO)NC1=O [BCH-87ck] (H-KILAVERYLKDQQLLGIWGCSGKLICTTAVPWNAS-OH; disulfide 20-26) | > 2.8 | > 2.8 | 2.735 | 1.676 | 1.089 | 0.643 | 0.274 | 0.191 | 0.114 | 0.053 | 0.409 | 0.015 | 0.022 | 0.034 | O.D. 450 nm ([1]; Test 314, sample CAP-113 (HIV-1 positive plasma pool diluted 50-fold)): > 2.8; O.D. 450 nm ([1]; Test 314, sample CAP-114 (HIV-1 positive pool diluted 100-fold)): > 2.8; O.D. 450 nm ([1]; Test 314, sample CAP-115 (HIV-1 positive pool diluted 200-fold)): 2.593; O.D. 450 nm ([1]; Test 314, sample CAP-116 (HIV-1 positive pool, serial dilution)): 1.871; O.D. 450 nm ([1]; Test 314, sample CAP-117 (HIV-1 positive pool, serial dilution)): 1.158; O.D. 450 nm ([1]; Test 314, sample CAP-118 (HIV-1 positive pool, serial dilution)): 0.679; O.D. 450 nm ([1]; Test 314, sample CAP-119 (HIV-1 positive pool, serial dilution)): 0.392; O.D. 450 nm ([1]; Test 314, sample CAP-120 (HIV-1 positive pool, serial dilution)): 0.229; O.D. 450 nm ([2]; sample CAP-222 (HIV-2 positive plasma pool diluted by 50)): 0.069; O.D. 450 nm ([2]; sample CAP-223 (HIV-2 positive pool diluted by 100)): 0.060; O.D. 450 nm ([2]; sample CAP-224 (HIV-2 positive pool, serial dilution)): 0.054; O.D. 450 nm ([2]; sample CAP-225 (HIV-2 positive pool, serial dilution)): 0.050; O.D. 450 nm ([2]; sample CAP-226 (HIV-2 positive pool, serial dilution)): 0.050; O.D. 450 nm ([2]; sample CAP-227 (HIV-2 positive pool, serial dilution)): 0.043; O.D. 450 nm ([2]; sample CAP-228 (HIV-2 positive pool, serial dilution)): 0.042; O.D. 450 nm ([2]; sample CAP-230 (HIV-2 positive pool, serial dilution)): 0.049; O.D. 450 nm ([3]; Test 314, sample BBI-1-162 (negative for HIV antibodies)): 0.015; O.D. 450 nm ([3]; Test 314, sample BBI-1-169 (not described)): 0.090; O.D. 450 nm ([3]; Test 314, sample BBI-1-172 (not described)): 0.019; O.D. 450 nm ([3]; Test 314, sample NEIA-2*2 (negative for HIV antibodies)): 0.050
2 | CC[C@H](C)[C@H](NC(=O)[C@H](CC(C)C)NC(=O)[C@H](CCCCN)NC(=O)CNC(=O)[C@H](CO)NC(=O)[C@H](C)NC(=O)[C@H](CC(N)=O)NC(=O)[C@H](Cc1c[nH]c2ccccc12)NC(=O)[C@@H]1CCCN1C(=O)[C@@H](NC(=O)[C@H](C)NC(=O)[C@@H](NC(=O)[C@@H](NC(=O)[C@@H]1CSSC[C@H](NC(=O)CNC(=O)[C@H](Cc2c[nH]c3ccccc23)NC(=O)[C@@H](NC(=O)CNC(=O)[C@H](CC(C)C)NC(=O)[C@H](CC(C)C)NC(=O)[C@H](CCC(N)=O)NC(=O)[C@H](CCC(N)=O)NC(=O)[C@H](CC(=O)O)NC(=O)[C@H](CCCCN)NC(=O)[C@H](CC(C)C)NC(=O)[C@H](Cc2ccc(O)cc2)NC(=O)[C@H](CCCNC(=N)N)NC(=O)[C@H](CCC(=O)O)NC(=O)[C@@H](NC(=O)[C@H](C)NC(=O)[C@H](CC(C)C)NC(=O)[C@@H](NC(=O)[C@@H](N)CCCCN)[C@@H](C)CC)C(C)C)[C@@H](C)CC)C(=O)N[C@@H](CO)C(=O)NCC(=O)N[C@@H](CCCCN)C(=O)N[C@@H](CC(C)C)C(=O)N[C@@H]([C@@H](C)CC)C(=O)N1)[C@@H](C)O)[C@@H](C)O)C(C)C)C(=O)O [BCH-408] (H-KILAVERYLKDQQLLGIWGCSGKLICTTAVPWNASGKLI-OH; disulfide 20-26) | > 2.8 | > 2.8 | > 2.8 | 2.319 | 1.433 | 0.835 | 0.455 | 0.244 | 0.156 | 0.102 | 0.025 | 0.014 | 0.029 | 0.035 | sensitivity compared to the other peptides ([1]; Table 3, versus BCH-87c, BCH-87ck, BCH-266 at progressively higher dilutions): superior sensitivity
